Results from patent publication US6461997B1, “Triazole sulfones having herbicidal activity” (Monsanto Technology LLC, priority 1999, dated 2002).

Tests used:
SOLNI (black nightshade) = test: Pre-emergence herbicidal activity, warm season; type: in vivo, Solanum nigrum; conditions: GR80 = lowest tested rate (300, 100, 30, 10 g/ha) with 80% or greater inhibition; approx. 14 days after treating; 30/21° C.
Procedure, shortened: (§1)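 Seeds sown in sterilised fertilised topsoil received surface-applied compound in 50:50 acetone/water, typically at 300, 100, 30 and 10 g/ha, then greenhouse-grown at 30/21° C (warm-season species) or 18/13° C (cool-season species). Percent inhibition versus untreated plants was scored at about 14 days, giving GR80; an asterisk marks activity short of 80% at the top rate.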

[1] = test system: GALAP (catchweed bedstraw); test: Pre-emergence herbicidal activity, cool season; type: in vivo, Galium aparine; conditions: lowest tested rate with 80% or greater inhibition; rates 300, 100, 30, 10 g/ha; about 14 days
Procedure, shortened: as §1

SINAR (wild mustard) [2] = test: Pre-emergence herbicidal activity, cool season; type: in vivo, Sinapis arvensis; conditions: lowest tested rate with 80% or greater inhibition; rates 300, 100, 30, 10 g/ha; about 14 days
Procedure, shortened: as §1

SASKR (russian thistle) = test: Pre-emergence herbicidal activity, cool season; type: in vivo, Salsola kali; conditions: lowest tested rate with 80% or greater inhibition; rates 300, 100, 30, 10 g/ha; about 14 days
Procedure, shortened: as §1

[3] = test system: LAMPU (purple deadnettle); test: Pre-emergence herbicidal activity, cool season; type: in vivo, Lamium purpureum; conditions: lowest tested rate with 80% or greater inhibition; rates 300, 100, 30, 10 g/ha; about 14 days
Procedure, shortened: as §1

AMARE (redroot pigweed) = test: Pre-plant incorporated (PPI) herbicidal activity, warm season; type: in vivo, Amaranthus retroflexus; conditions: for Percent inhibition AMARE: PPI application; for PPI activity (GR80) AMARE: pre-plant incorporated, GR80 = lowest tested rate with 80% or greater inhibition, approx. 14 days after treating, 30/21° C.
Procedure, shortened: (§2)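 Seeds sown on compacted topsoil were covered with soil into which test compound (organic solvent solution/suspension) had been sprayed and mixed; untreated cover soil for controls. Greenhouse, 0.64 cm overhead irrigation; warm season 30/21° C, cool season 18/13° C day/night. Percent inhibition versus untreated scored ~14 days after treatment.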

DATST (jimsonweed) = test: as above; type: in vivo, Datura stramonium; conditions: for Percent inhibition DATST: PPI application; for PPI activity (GR80) DATST: pre-plant incorporated, GR80 = lowest tested rate with 80% or greater inhibition, approx. 14 days after treating, 30/21° C.
Procedure, shortened: as §2

[4] = test system: PANMI (wild proso millet); test: as above; type: in vivo, Panicum miliaceum; conditions: for Percent inhibition PANMI: PPI application; for PPI activity GR80, PANMI: pre-plant incorporated, lowest tested rate with 80% or greater inhibition, about 14 days
Procedure, shortened: as §2

PANDI (fall panicum) = test: as above; type: in vivo, Panicum dichotomiflorum; conditions: for Percent inhibition PANDI: PPI application; for PPI activity GR80, PANDI: pre-plant incorporated, lowest tested rate with 80% or greater inhibition, about 14 days
Procedure, shortened: as §2

POLCO (wild buckwheat) = test: Pre-plant incorporated (PPI) herbicidal activity, cool season; type: in vivo, Polygonum convolvulus; conditions: for PPI activity GR80, POLCO: pre-plant incorporated, lowest tested rate with 80% or greater inhibition, about 14 days; for Percent inhibition POLCO: weed, PPI application
Procedure, shortened: as §2

SINAR (wild mustard) [5] = test: as above; type: in vivo, Sinapis arvensis; conditions: for PPI activity GR80, SINAR: pre-plant incorporated, lowest tested rate with 80% or greater inhibition, about 14 days; for Percent inhibition SINAR: weed, PPI application
Procedure, shortened: as §2

ALOMY (blackgrass) = test: as above; type: in vivo, Alopecurus myosuroides; conditions: for PPI activity GR80, ALOMY: pre-plant incorporated, lowest tested rate with 80% or greater inhibition, about 14 days; for Percent inhibition ALOMY: weed, PPI application
Procedure, shortened: as §2

BROTE (downy brome) = test: as above; type: in vivo, Bromus tectorum; conditions: for PPI activity GR80, BROTE: pre-plant incorporated, lowest tested rate with 80% or greater inhibition, about 14 days; for Percent inhibition BROTE: weed, PPI application
Procedure, shortened: as §2

CCN(CC)C(=O)n1cnc(S(=O)(=O)C(F)(F)SCCOC)n1 [Example 13]
Pre-emergence activity (GR80) SOLNI (SOLNI (black nightshade)): 300 g/ha
Pre-emergence activity GR80, GALAP [1]: 100 g/ha
Pre-emergence activity GR80, SINAR (SINAR (wild mustard) [2]): [empty]
Pre-emergence activity GR80, SASKR (SASKR (russian thistle)): [empty]
Pre-emergence activity GR80, LAMPU [3]: 100 g/ha
Percent inhibition AMARE (AMARE (redroot pigweed); 10 g/ha): 0%
Percent inhibition AMARE (AMARE (redroot pigweed); 30 g/ha): 90%
Percent inhibition AMARE (AMARE (redroot pigweed); 100 g/ha): 70%
Percent inhibition AMARE (AMARE (redroot pigweed); 300 g/ha): 100%
Percent inhibition AMARE (AMARE (redroot pigweed); 900 g/ha): 100%
PPI activity (GR80) AMARE (AMARE (redroot pigweed)): 100 g/ha
Percent inhibition DATST (DATST (jimsonweed); 10 g/ha): 0%
Percent inhibition DATST (DATST (jimsonweed); 30 g/ha): 30%
Percent inhibition DATST (DATST (jimsonweed); 100 g/ha): 50%
Percent inhibition DATST (DATST (jimsonweed); 300 g/ha): 90%
Percent inhibition DATST (DATST (jimsonweed); 900 g/ha): 100%
PPI activity (GR80) DATST (DATST (jimsonweed)): 300 g/ha
Percent inhibition PANMI ([4]; 10 g/ha): 100%
Percent inhibition PANMI ([4]; 30 g/ha): 90%
Percent inhibition PANMI ([4]; 100 g/ha): 70%
Percent inhibition PANMI ([4]; 300 g/ha): 100%
Percent inhibition PANMI ([4]; 900 g/ha): 100%
PPI activity GR80, PANMI [4]: 100 g/ha
Percent inhibition PANDI (PANDI (fall panicum); 10 g/ha): 40%
Percent inhibition PANDI (PANDI (fall panicum); 30 g/ha): 100%
Percent inhibition PANDI (PANDI (fall panicum); 100 g/ha): 90%
Percent inhibition PANDI (PANDI (fall panicum); 300 g/ha): 100%
Percent inhibition PANDI (PANDI (fall panicum); 900 g/ha): 100%
PPI activity GR80, PANDI (PANDI (fall panicum)): 30 g/ha
PPI activity GR80, POLCO (POLCO (wild buckwheat)): * (activity observed, at least at highest rate, but <80% inhibition)
Percent inhibition POLCO (POLCO (wild buckwheat); 10 g/ha): 0%
Percent inhibition POLCO (POLCO (wild buckwheat); 30 g/ha): 50%
Percent inhibition POLCO (POLCO (wild buckwheat); 100 g/ha): 40%
Percent inhibition POLCO (POLCO (wild buckwheat); 300 g/ha): 80%
Percent inhibition POLCO (POLCO (wild buckwheat); 900 g/ha): 90%
PPI activity GR80, SINAR (SINAR (wild mustard) [5]): [empty]
Percent inhibition SINAR (SINAR (wild mustard) [5]; 10 g/ha): 70%
Percent inhibition SINAR (SINAR (wild mustard) [5]; 30 g/ha): 100%
Percent inhibition SINAR (SINAR (wild mustard) [5]; 100 g/ha): 100%
Percent inhibition SINAR (SINAR (wild mustard) [5]; 900 g/ha): 100%
PPI activity GR80, ALOMY (ALOMY (blackgrass)): 100 g/ha
Percent inhibition ALOMY (ALOMY (blackgrass); 10 g/ha): 40%
Percent inhibition ALOMY (ALOMY (blackgrass); 30 g/ha): 90%
Percent inhibition ALOMY (ALOMY (blackgrass); 100 g/ha): 99%
Percent inhibition ALOMY (ALOMY (blackgrass); 300 g/ha): 99%
Percent inhibition ALOMY (ALOMY (blackgrass); 900 g/ha): 100%
PPI activity GR80, BROTE (BROTE (downy brome)): * (activity observed, at least at highest rate, but <80% inhibition)
Percent inhibition BROTE (BROTE (downy brome); 10 g/ha): 0%
Percent inhibition BROTE (BROTE (downy brome); 30 g/ha): 0%
Percent inhibition BROTE (BROTE (downy brome); 100 g/ha): 10%
Percent inhibition BROTE (BROTE (downy brome); 300 g/ha): 20%
Percent inhibition BROTE (BROTE (downy brome); 900 g/ha): 85%

CCN(CC)C(=O)n1cnc(S(=O)(=O)C(F)(F)C(F)F)n1 [Example 16]
Pre-emergence activity (GR80) SOLNI (SOLNI (black nightshade)): 100 g/ha
Pre-emergence activity GR80, GALAP [1]: 100 g/ha
Pre-emergence activity GR80, SINAR (SINAR (wild mustard) [2]): 100 g/ha
Pre-emergence activity GR80, SASKR (SASKR (russian thistle)): 100 g/ha
Pre-emergence activity GR80, LAMPU [3]: 100 g/ha
Percent inhibition AMARE (AMARE (redroot pigweed); 10 g/ha): 80%
Percent inhibition AMARE (AMARE (redroot pigweed); 30 g/ha): 100%
Percent inhibition AMARE (AMARE (redroot pigweed); 100 g/ha): 100%
Percent inhibition AMARE (AMARE (redroot pigweed); 300 g/ha): 100%
Percent inhibition AMARE (AMARE (redroot pigweed); 900 g/ha): 100%
PPI activity (GR80) AMARE (AMARE (redroot pigweed)): 10 g/ha
Percent inhibition DATST (DATST (jimsonweed); 10 g/ha): 0%
Percent inhibition DATST (DATST (jimsonweed); 30 g/ha): 0%
Percent inhibition DATST (DATST (jimsonweed); 100 g/ha): 20%
Percent inhibition DATST (DATST (jimsonweed); 300 g/ha): 70%
Percent inhibition DATST (DATST (jimsonweed); 900 g/ha): 100%
PPI activity (GR80) DATST (DATST (jimsonweed)): 100 g/ha
Percent inhibition PANMI ([4]; 10 g/ha): 100%
Percent inhibition PANMI ([4]; 30 g/ha): 100%
Percent inhibition PANMI ([4]; 100 g/ha): 100%
Percent inhibition PANMI ([4]; 300 g/ha): 100%
Percent inhibition PANMI ([4]; 900 g/ha): 100%
PPI activity GR80, PANMI [4]: 30 g/ha
Percent inhibition PANDI (PANDI (fall panicum); 10 g/ha): 0%
Percent inhibition PANDI (PANDI (fall panicum); 30 g/ha): 100%
Percent inhibition PANDI (PANDI (fall panicum); 100 g/ha): 100%
Percent inhibition PANDI (PANDI (fall panicum); 300 g/ha): 100%
Percent inhibition PANDI (PANDI (fall panicum); 900 g/ha): 100%
PPI activity GR80, PANDI (PANDI (fall panicum)): 10 g/ha
PPI activity GR80, POLCO (POLCO (wild buckwheat)): 100 g/ha
Percent inhibition POLCO (POLCO (wild buckwheat); 10 g/ha): 0%
Percent inhibition POLCO (POLCO (wild buckwheat); 30 g/ha): 0%
Percent inhibition POLCO (POLCO (wild buckwheat); 100 g/ha): 0%
Percent inhibition POLCO (POLCO (wild buckwheat); 300 g/ha): 0%
Percent inhibition POLCO (POLCO (wild buckwheat); 900 g/ha): 95%
PPI activity GR80, SINAR (SINAR (wild mustard) [5]): 10 g/ha
Percent inhibition SINAR (SINAR (wild mustard) [5]; 10 g/ha): 0%
Percent inhibition SINAR (SINAR (wild mustard) [5]; 30 g/ha): 50%
Percent inhibition SINAR (SINAR (wild mustard) [5]; 100 g/ha): 100%
Percent inhibition SINAR (SINAR (wild mustard) [5]; 300 g/ha): 100%
Percent inhibition SINAR (SINAR (wild mustard) [5]; 900 g/ha): 100%
PPI activity GR80, ALOMY (ALOMY (blackgrass)): 30 g/ha
Percent inhibition ALOMY (ALOMY (blackgrass); 10 g/ha): 40%
Percent inhibition ALOMY (ALOMY (blackgrass); 30 g/ha): 95%
Percent inhibition ALOMY (ALOMY (blackgrass); 100 g/ha): 100%
Percent inhibition ALOMY (ALOMY (blackgrass); 300 g/ha): 100%
Percent inhibition ALOMY (ALOMY (blackgrass); 900 g/ha): 100%
PPI activity GR80, BROTE (BROTE (downy brome)): 300 g/ha
Percent inhibition BROTE (BROTE (downy brome); 10 g/ha): 0%
Percent inhibition BROTE (BROTE (downy brome); 30 g/ha): 0%
Percent inhibition BROTE (BROTE (downy brome); 100 g/ha): 35%
Percent inhibition BROTE (BROTE (downy brome); 300 g/ha): 40%
Percent inhibition BROTE (BROTE (downy brome); 900 g/ha): 90%
